Laboratory results: the NIST ThermoML archive (doi:10.1016/j.jct.2011.08.019)
“And” between values parts separate entries of the source, which are not always exact repeats. Equal values may be shown once.

Assay: molar heat capacity at constant pressure
Settings: 101.33 kPa, Liquid, Small sample (50 mg) DSC

CCCCCCCCCCCCCC[P+](CCCCCC)(CCCCCC)CCCCCC.N#C[N-]C#N [tetradecyl(trihexyl)phosphonium dicyanamide]
Settings	molar heat capacity at constant pressure
313.15 K	1060.2 J/K/mol and 1065.1 J/K/mol and 1061.3 J/K/mol
318.15 K	1065.7 J/K/mol and 1070.6 J/K/mol and 1067.3 J/K/mol
323.15 K	1075.6 J/K/mol and 1080 J/K/mol and 1076.1 J/K/mol
328.15 K	1089.3 J/K/mol and 1086 J/K/mol and 1084.4 J/K/mol
333.15 K	1094.3 J/K/mol and 1099.2 J/K/mol and 1095.4 J/K/mol
338.15 K	1105.3 J/K/mol and 1109.1 J/K/mol and 1106.9 J/K/mol
343.15 K	1114.6 J/K/mol and 1119.6 J/K/mol and 1116.8 J/K/mol
348.15 K	1124.5 J/K/mol and 1129.5 J/K/mol and 1127.3 J/K/mol
353.15 K	1135 J/K/mol and 1140.5 J/K/mol and 1137.2 J/K/mol
358.15 K	1145.4 J/K/mol and 1150.4 J/K/mol and 1147.6 J/K/mol
363.15 K	1155.3 J/K/mol and 1160.3 J/K/mol
368.15 K	1164.1 J/K/mol and 1169.1 J/K/mol and 1165.2 J/K/mol
373.15 K	1172.9 J/K/mol and 1177.9 J/K/mol and 1173.5 J/K/mol
378.15 K	1180.6 J/K/mol and 1186.1 J/K/mol and 1190.5 J/K/mol
383.15 K	1188.9 J/K/mol and 1194.4 J/K/mol and 1194.9 J/K/mol
388.15 K	1197.7 J/K/mol and 1203.2 J/K/mol and 1204.8 J/K/mol
393.15 K	1205.9 J/K/mol and 1212 J/K/mol and 1214.2 J/K/mol
398.15 K	1213.6 J/K/mol and 1219.7 J/K/mol and 1220.2 J/K/mol
403.15 K	1221.3 J/K/mol and 1226.8 J/K/mol and 1227.9 J/K/mol
408.15 K	1227.4 J/K/mol and 1233.4 J/K/mol and 1234 J/K/mol
413.15 K	1234.5 J/K/mol and 1241.1 J/K/mol and 1244.4 J/K/mol

CCCCCCCCCCCCCC[P+](CCCCCC)(CCCCCC)CCCCCC.FC(F)(F)C(F)(F)[P-](F)(F)(F)(C(F)(F)C(F)(F)F)C(F)(F)C(F)(F)F
Settings	molar heat capacity at constant pressure
338.15 K	1543.8 J/K/mol [middle of 4 runs]
343.15 K	1547.5 J/K/mol [middle of 4 runs]
348.15 K	1556.8 J/K/mol [middle of 4 runs]
353.15 K	1566.1 J/K/mol and 1563.3 J/K/mol
358.15 K	1577.2 J/K/mol and 1574.4 J/K/mol
363.15 K	1587.4 J/K/mol and 1583.7 J/K/mol and 1585.6 J/K/mol
368.15 K	1596.7 J/K/mol [middle of 4 runs]
373.15 K	1604.1 J/K/mol [middle of 4 runs]
378.15 K	1615.3 J/K/mol [middle of 4 runs]
383.15 K	1626.4 J/K/mol [middle of 4 runs]
388.15 K	1634.8 J/K/mol
393.15 K	1645 J/K/mol [middle of 4 runs]
398.15 K	1652.4 J/K/mol [middle of 4 runs]
403.15 K	1661.7 J/K/mol [middle of 4 runs]
408.15 K	1668.2 J/K/mol and 1669.2 J/K/mol
413.15 K	1678.4 J/K/mol and 1677.5 J/K/mol
418.15 K	1688.7 J/K/mol and 1685.9 J/K/mol and 1687.7 J/K/mol
423.15 K	1697 J/K/mol [middle of 4 runs]
428.15 K	1700.7 J/K/mol [middle of 4 runs]
433.15 K	1707.2 J/K/mol and 1711 J/K/mol
438.15 K	1722.1 J/K/mol [middle of 4 runs]
443.15 K	1727.7 J/K/mol [middle of 4 runs]
448.15 K	1735.1 J/K/mol [middle of 4 runs]
453.15 K	1743.5 J/K/mol [middle of 4 runs]
458.15 K	1750 J/K/mol and 1753.7 J/K/mol and 1739.7 J/K/mol
463.15 K	1756.5 J/K/mol [middle of 4 runs]
468.15 K	1761.1 J/K/mol [middle of 4 runs]
473.15 K	1763.9 J/K/mol [middle of 4 runs]
478.15 K	1771.3 J/K/mol [middle of 4 runs]
483.15 K	1768.5 J/K/mol and 1776 J/K/mol and 1780.6 J/K/mol
488.15 K	1785.3 J/K/mol [middle of 4 runs]
493.15 K	1785.3 J/K/mol [middle of 4 runs]
498.15 K	1787.1 J/K/mol [middle of 4 runs]
503.15 K	1798.3 J/K/mol [middle of 4 runs]
508.15 K	1802 J/K/mol [middle of 4 runs]
513.15 K	1809.4 J/K/mol and 1803.8 J/K/mol and 1805.7 J/K/mol

CCCCCCCCCCCCCC[P+](CCCCCC)(CCCCCC)CCCCCC.[Cl-] [trihexyl(tetradecyl)phosphonium chloride]
Settings	molar heat capacity at constant pressure
338.15 K	835 J/K/mol and 833.5 J/K/mol and 834 J/K/mol
343.15 K	838.7 J/K/mol and 837.1 J/K/mol and 837.6 J/K/mol
348.15 K	842.8 J/K/mol [middle of 4 runs]
353.15 K	850.6 J/K/mol and 848.5 J/K/mol and 849.1 J/K/mol
358.15 K	857.9 J/K/mol and 855.3 J/K/mol and 854.8 J/K/mol
363.15 K	863.6 J/K/mol and 861.5 J/K/mol and 860.5 J/K/mol
368.15 K	870.9 J/K/mol and 868.3 J/K/mol and 867.8 J/K/mol
373.15 K	876.6 J/K/mol and 874.5 J/K/mol and 874 J/K/mol
378.15 K	881.8 J/K/mol [middle of 4 runs]
383.15 K	889.6 J/K/mol and 886.5 J/K/mol and 888 J/K/mol
388.15 K	893.7 J/K/mol [middle of 4 runs]
393.15 K	901 J/K/mol and 899.4 J/K/mol and 898.4 J/K/mol
398.15 K	905.2 J/K/mol [middle of 4 runs]
403.15 K	910.3 J/K/mol [middle of 4 runs]
408.15 K	917.6 J/K/mol and 915 J/K/mol and 916.1 J/K/mol
413.15 K	922.8 J/K/mol [middle of 4 runs]
418.15 K	928 J/K/mol [middle of 4 runs]
423.15 K	933.2 J/K/mol and 931.1 J/K/mol and 932.7 J/K/mol
428.15 K	937.9 J/K/mol [middle of 4 runs]
433.15 K	944.1 J/K/mol [middle of 4 runs]
438.15 K	948.8 J/K/mol [middle of 4 runs]
443.15 K	952.4 J/K/mol and 953.4 J/K/mol and 951.4 J/K/mol
448.15 K	957.1 J/K/mol [middle of 4 runs]
453.15 K	961.2 J/K/mol [middle of 4 runs]
458.15 K	965.4 J/K/mol [middle of 4 runs]
463.15 K	968 J/K/mol [middle of 4 runs]
